Series [1] relates to C57BL/6JRccHsd mice. The series can be described thus: Daily observation during repeated dosing. The conditions noted are these: 1 or 5 mg/kg p.o. daily for 27 days. In kind it is in vivo. The protocol:
[…]. […] Due to the nature of this pilot study, the mice were housed individually.
Seven animals received the 1 mg/kg dose of compound 8, and five animals received the 5 mg/kg dose of compound 8. Compound 8 was prepared as a stock solution in 100% MeCN (5 and 10 mg/mL) and kept refrigerated for the duration of the study. The dosages were prepared as follows: based on the animal’s body weight, a calculated volume of compound 8 stock solution was accurately pipetted onto a cubic piece (approx. 50 mg) of sterilized toast (Ölz multigrain toast, Rudolf Ölz Meisterbäcker GmbH & Co KG, Austria), and left to dry at room temperature for 5 min. Subsequently, 25 μL of 50% sucrose in distilled water were added at the same site to mask the bitter taste of compound 8. These dosage units were prepared twice a week during the study and stored in a closed glass petri dish at room temperature until use. For administration, the toast pieces were placed on the floor of the cage at the same time each day, and left for the animal to eat it voluntarily (the consumption of the dosage was confirmed by observation). Compound 8 was administered in this way for 27 days, eliminating the need for repeated handling and injection. The animals were observed daily for general activity level, hair coat quality or other abnormal behavior or clinical signs.

Series [2] in a line: Hydrolysis of 8 in human plasma. In kind it is in vitro ADME. The text has this:
See Supporting Information Tables S4.

Series [3] in a line: Plasma and brain distribution profile in mice. As to conditions: 1 mg/kg, intravenous and peroral.
Source text: Animals All mice used were 9–15 weeks old wild-type BALB/c mice bred in the Laboratory of Animal Genomics at the Faculty of Veterinary Medicine, University of Ljubljana. For intravenous administration, 4 males and one female were additionally purchased from Envigo RMS Holding Corp. Mice were conventionally bred in open polycarbonate cages (Tecniplast, Buguggiate, Italy) and provided with wood chip bedding (Lignocel®, Rettenmaier and Sons, Germany). Mice were kept under standard conditions, i.e., a 12:12 dark–light cycle (LED, CCT 3000 K, ≤ 25 lux above the cage), at temperature 21–24 °C, and 50%–60% humidity. They were fed irradiated rodent diet with minimal levels of phytoestrogens (Teklad global 16% protein rodent diet®, BN 2916, Envigo, Udine, Italy) and had access to drinkable tap water ad libitum.
For each time point, 4 mice, two females and two males, were used. A total of 24 animals were used (n = 24) for each route of administration. […] Peroral administration was performed via flexible plastic feeding tubes (20G × 30 mm, Instech Laboratories, USA) by gavage, with volume dose of 200 μL/20 g body weight. Intravenous administration into the tail vein was performed under isoflurane inhalation anesthesia (Isoflurin®, VetPharma, Spain) using a syringe (INSULIN100, 29G × 1/2″, 12.7 mm, CHINS00329, Chirana T. Injecta, a.s., Slovakia) with a volume dose of 150 μL. […]
A short description of series [4]: Aqueous stability (UPLC). The series is classed as physicochemical. How it is done: For the aqueous stability determination, UPLC analyses were performed as described under Chemistry–General Information. The method used a Waters Acquity UPLC® HSS C18 SB column (2.1 mm× 50 mm, 1.8 μm) thermostated at 40 °C, with: injection volume, 5 μL; flow rate, 0.4 mL/min; detector λ, 220 nm; mobile phase A: 0.1% TFA (v/v) in MilliQ water; mobile phase B: MeCN. Gradient: 0–5 min, 20%–100% B; 5–6 min, 20% B.
Compound stock solutions (100 mmol/L) were prepared in absolute EtOH, while the internal standard (caffeine) was dissolved in PBS (0.1 mg/mL). The aqueous stability solutions were prepared by mixing 1200 μL PBS with internal standard, 150 μL absolute EtOH, and 150 μL compound stock solution in a HPLC vial to give 10 mmol/L compound concentration in PBS/EtOH = 80:20, which was injected immediately and then at hourly intervals for 48 h. The analyte AUCs were normalized on internal standard AUCs and compared with the timepoint zero. For the rate calculation, pseudo-first order kinetics were assumed.
For investigation of compound 8 stability in an aqueous medium, its stock solution (10,000 mg/L) was prepared in EtOH. 15 μL of the stock solution was mixed with 60 μL of caffeine (2500 mg/L in EtOH) and 1425 μL of the respective aqueous solution/buffer to achieve final concentration of 100 mg/L with 5% ethanol content. The UPLC analysis was carried as described above.

Series [5] concerns ICR mice icv-injected with Aβ1–42. The series can be described thus: Y maze spontaneous alternation, mice model with icv-injection of Aβ1–42. The series is classed as in vivo. As to conditions: ip, once a day. How it is done:
Mice model with icv-injection of Aβ1–42 The experiments were performed using ICR male mice (8–10 weeks old, weight 18–20 g), which were purchased from Shanghai Bikai Animal Breeding Factory (Shanghai, China). Animals were housed in cages (6 mice per cage) at a constant temperature of 25±2 °C, humidity of 55%±10% and a light/dark (12:12) cycle. The mice had unlimited access to food and water prior to the experiment. Specified conditions for the maintenance of mice were ensured throughout the experiments, including tree bedding (Yizheng Anlimao Biotechnology Co., Ltd., China) and lab feed (Zimao, China). For behavioural tests, mice were selected randomly, each group consisted of 6 mice. The experiments were performed between 9 am and 3 pm.
According to the literature procedure, recombinant human hexafluoroisopropanol-pretreated Aβ1–42 from Merck Millipore (Darmstadt, Germany) was dissolved in 1% DMSO, diluted with saline to the final concentration of 2 mg/mL, and incubated for 72 h to form oligomers. […]
Spontaneous alternation (Y maze) test was used to assess working memory in mice. […] The experimental data recorded the number of times the animal entered the three arms in a row. […] The behavior of mice in the Y maze was recorded by Xeye Aba and processed by GraphPad Prism 5.

Series [6] has as its target hBChE (Homo sapiens, UniProt P06276). The conditions noted are these: expected nearly identical to compound 11 of the previous study (same carbamoyl residue at Ser198); cited from earlier work.

Some results are limits rather than exact numbers.

Chain of hBChE (P06276 29-602): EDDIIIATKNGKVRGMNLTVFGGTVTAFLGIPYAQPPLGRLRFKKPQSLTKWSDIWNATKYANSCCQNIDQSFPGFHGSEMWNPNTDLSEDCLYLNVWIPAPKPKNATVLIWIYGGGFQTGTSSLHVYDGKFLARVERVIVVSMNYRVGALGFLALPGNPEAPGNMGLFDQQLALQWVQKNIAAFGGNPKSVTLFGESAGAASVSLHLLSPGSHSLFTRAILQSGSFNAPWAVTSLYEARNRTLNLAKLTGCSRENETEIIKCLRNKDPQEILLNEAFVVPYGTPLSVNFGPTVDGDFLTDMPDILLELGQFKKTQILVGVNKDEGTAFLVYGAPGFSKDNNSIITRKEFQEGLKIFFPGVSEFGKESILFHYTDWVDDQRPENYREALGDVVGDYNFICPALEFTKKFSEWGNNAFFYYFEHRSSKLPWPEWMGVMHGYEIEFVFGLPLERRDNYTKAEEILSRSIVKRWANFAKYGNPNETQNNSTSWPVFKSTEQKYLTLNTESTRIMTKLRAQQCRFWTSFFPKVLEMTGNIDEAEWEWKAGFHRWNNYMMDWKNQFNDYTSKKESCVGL

Take `CCN(CC)C(=O)n1cnc(C2(CC)Cc3ccccc3C2)c1` [Compound 8, N,N-Diethyl-4-(2-ethylindan-2-yl)-1H-imidazole-1-carboxamide]: the “adverse effects on repeated dosing” value in series [1] was “No adverse effects were observed”. Further, the “8 present after 24 h” value in series [2] (control experiment, plasma pre-treated with BChE-selective covalent inhibitor isoOMPA) is over 85%. Moreover, in series [2] (human, plasma, 37 °C, nominal starting concentration 20 μg/L), the half-life at 20 μg/L was 5 h. Moreover, in series [3], the “blood–brain barrier permeation” value is “quickly permeated the blood–brain barrier”. In series [4] (PBS:EtOH = 80:20, 10 mmol/L, during 48 h), the “t1/2 in aqueous solution” value is recorded as “stable”. Moreover, the “% left after 24 h” value in series [4] (PBS:EtOH = 95:5, 100 mg/L) is recorded as 100.0%; in series [4] (pH 2:EtOH = 95:5, 100 mg/L), 99.9%; in series [4] (pH 4:EtOH = 95:5, 100 mg/L), 100.0%; in series [4] (pH 6:EtOH = 95:5, 100 mg/L), 100.0%; in series [4] (pH 10:EtOH = 95:5, 100 mg/L) it was 97.7%. Also, in series [5], the “spontaneous alternation in the Y maze task” value is recorded as “increased spontaneous alternation”. The “kdecarb, decarbamoylation” value in series [6] is “∼0.22[53] ×10^–2 h^–1”. Moreover, in series [6], the “t1/2, decarbamoylation” value was “∼318[53] h”.
